# Measured values from patent US20210221784A1, “COMPOUNDS AND COMPOSITIONS FOR THE TREATMENT OF PAIN” (Université de Strasbourg, priority 2018, published 2021).
# Tests used:
# hNPFFR2 = molecular target: T1, hNPFFR2 (Homo sapiens, UniProt Q9Y5X5); assay: Radioligand binding competition, membranes from CHO cells expressing hNPFFR2; settings: 0.015 nM [D-Tyr1[125I], N-MePhe3]-NPFF, 1 hr at 25° C., read-out: NPFF2-R Ki
# T1 construct: expressed in transfected cells; membranes
# Protocol: Competition experiments with membranes from CHO cells stably expressing hNPFFR1 and hNPFFR2 were performed essentially as described in Elhabazi, K., et al. Neuropharmacology, 2013. 75C, 164-171., Briefly, hNPFFR1 or hNPFFR2 membranes (5 to 10 μg of proteins) were incubated (1 hr at 25° C.; 0.25 mL total volume) with 0.015 nM [D-Tyr1[125I], N-MePhe3]-NPFF (Hartmann Analytic GmbH) in 50 mM HEPES (pH 7.4), 1 mM CaCl2, 1 mM MgCl2 and 0.1% bovine serum albumin. Non-specific binding was determined in the presence of 10 μM RFRP-3. Incubation was terminated by rapid filtration through a 96-well GF/B unifilter apparatus (Perkin Elmer Life and Analytical Sciences, Courtaboeuf, France). Unifilters were washed five times with binding buffer, then dried for 1 h at 65° C. After addition of 40 μL scintillation cocktail (Microscint-O, Perkin Elmer) per well, bound radioactivity was determined on a TopCount scintillation counter (Perkin Elmer).
# hNPFFR1 = molecular target: T2, hNPFFR1 (Homo sapiens, UniProt Q9GZQ6); assay: Radioligand binding competition, membranes from CHO cells expressing hNPFFR1; settings: 0.015 nM [D-Tyr1[125I], N-MePhe3]-NPFF, 1 hr at 25° C., read-out: NPFF1-R Ki
# T2 construct: expressed in transfected cells; membranes
# Summary of the method: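 CHO membranes (5–10 μg protein) stably expressing hNPFFR1 or hNPFFR2 incubated 1 h at 25 °C with 0.015 nM [D-Tyr1[125I], N-MePhe3]-NPFF in HEPES pH 7.4 with Ca2+, Mg2+, 0.1% BSA. Non-specific binding defined with 10 μM RFRP-3; bound radioactivity counted after GF/B filtration.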
# T1 sequence (Q9Y5X5 whole entry): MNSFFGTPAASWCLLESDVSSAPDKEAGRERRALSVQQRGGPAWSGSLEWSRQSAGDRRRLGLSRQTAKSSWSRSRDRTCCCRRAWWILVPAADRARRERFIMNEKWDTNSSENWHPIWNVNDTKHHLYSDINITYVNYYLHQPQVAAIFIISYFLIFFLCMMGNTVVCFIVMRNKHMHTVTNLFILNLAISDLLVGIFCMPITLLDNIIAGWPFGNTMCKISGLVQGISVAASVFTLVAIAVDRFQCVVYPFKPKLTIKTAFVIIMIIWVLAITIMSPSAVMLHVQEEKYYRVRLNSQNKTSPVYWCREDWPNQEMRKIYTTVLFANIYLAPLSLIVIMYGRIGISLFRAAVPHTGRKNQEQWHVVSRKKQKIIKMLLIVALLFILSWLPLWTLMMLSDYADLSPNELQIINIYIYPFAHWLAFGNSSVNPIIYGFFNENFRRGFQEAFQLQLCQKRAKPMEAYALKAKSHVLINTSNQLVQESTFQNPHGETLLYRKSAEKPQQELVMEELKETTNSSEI
# T2 sequence (Q9GZQ6 whole entry): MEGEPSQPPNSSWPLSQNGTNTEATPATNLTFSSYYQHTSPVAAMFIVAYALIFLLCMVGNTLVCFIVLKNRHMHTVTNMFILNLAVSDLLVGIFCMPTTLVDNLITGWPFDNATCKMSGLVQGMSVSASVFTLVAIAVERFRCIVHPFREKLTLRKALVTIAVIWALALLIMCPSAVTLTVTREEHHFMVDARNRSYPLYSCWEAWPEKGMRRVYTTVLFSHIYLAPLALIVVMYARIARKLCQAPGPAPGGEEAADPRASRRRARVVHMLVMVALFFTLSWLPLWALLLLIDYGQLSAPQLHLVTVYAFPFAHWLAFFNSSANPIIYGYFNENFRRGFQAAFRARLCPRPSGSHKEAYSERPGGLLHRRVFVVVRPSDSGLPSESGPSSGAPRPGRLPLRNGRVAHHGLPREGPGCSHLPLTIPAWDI
smiles,measurement,setting,value
"Nc1ccc(-c2cccc(Cl)c2Cl)c(N)n1 [Compound 1j, 3-(2,3-dichlorophenyl)pyridine-2,6-diamine]",Ki,hNPFFR2,2000 nM
same,Ki,hNPFFR1,20 ± 2 nM
